Legend:
[1] = tested on: Neuroblastoma SH-SY5Y cells (SH/APPwt) with human wild-type β-APP excessively expressed; assay: Measurement of β-amyloid (Aβ) production inhibiting effect in cell; format: cell-based; conditions: 24 hours incubation, Amyloid β 1-40 HTRF in culture supernatant, read-out: IC50 (amount needed to inhibit Aβ production by 50%)
Experimental: Neuroblastoma SH-SY5Y cells (SH/APPwt) with human wild-type β-APP excessively expressed therein were prepared at 8×10^5 cells/mL, and 150 μl portions thereof were inoculated into each well of a 96-well culture plate (Falcon). The cells were cultured for 2 hours at 37° C. in a 5% gaseous carbon dioxide incubator. Then, a solution which have been preliminarily prepared by adding and suspending the compound of the present invention (DMSO (dimethyl sulfoxide) solution) so as to be 2 μl/50 μl medium was added to the cell sap. Namely, the final DMSO concentration was 1%, and the amount of the cell culture was 200 μl. After the incubation was performed for 24 hours from the addition of the test compound, 100 μl of the culture supernatant was collected from each fraction. The amount of the Aβ in each fraction was measured.
The Aβ amount was measured as follows. 10 μl of a homogeneous time resolved fluorescence (HTRF) measurement reagent (Amyloid β 1-40 peptide; IBA Molecular Holding, S.A.) and 10 μl of the culture supernatant were put into a 384-well half area microplate (black microplate, Costar) and mixed with each other, and then left standing overnight at 4° C. while the light was shielded. Then, the fluorescence intensity (excitation wavelength: 337 nm, measurement wavelength: 620 nm and 665 nm) was measured with Wallac 1420 multilabel counter (Perkin Elmer life sciences). The Aβ amount was determined from the count rate at each measurement wavelength (10000×Count 665/Count 620), and the amount needed to inhibit Aβ production by 50% (IC50) was calculated from at least six different dosages.

[2] = biological target: T1, CYP2C9 (Homo sapiens, UniProt P11712); assay: CYP inhibition test (CYP2C9); format: in vitro ADME; conditions: pooled human hepatic microsome 0.2 mg protein/mL, 15 minutes, 37° C.; read-out: IC50 CYP2C9 (tolbutamide methyl-hydroxylation)
T1 construct: enzyme, pooled human hepatic microsome 0.2 mg protein/mL; from tissue
T1 sequence (P11712 whole entry): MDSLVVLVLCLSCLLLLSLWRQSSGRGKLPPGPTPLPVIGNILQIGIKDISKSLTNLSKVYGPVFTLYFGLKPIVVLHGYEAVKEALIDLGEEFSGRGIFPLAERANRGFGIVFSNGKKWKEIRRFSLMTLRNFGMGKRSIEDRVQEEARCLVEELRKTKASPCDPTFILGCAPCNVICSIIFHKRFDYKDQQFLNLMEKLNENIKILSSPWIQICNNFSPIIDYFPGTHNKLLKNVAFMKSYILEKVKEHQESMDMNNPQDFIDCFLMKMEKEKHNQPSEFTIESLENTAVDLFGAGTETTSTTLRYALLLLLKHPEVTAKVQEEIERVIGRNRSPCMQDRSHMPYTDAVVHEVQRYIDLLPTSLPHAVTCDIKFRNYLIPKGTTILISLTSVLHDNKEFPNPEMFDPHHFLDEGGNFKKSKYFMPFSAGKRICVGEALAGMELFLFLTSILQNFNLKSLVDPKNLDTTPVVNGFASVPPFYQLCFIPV
From the text: (§1) Using commercially available pooled human hepatic microsome, and employing, as markers, 7-ethoxyresorufin O-deethylation (CYP1A2), tolbutamide methyl-hydroxylation (CYP2C9), mephenyloin 4′-hydroxylation (CYP2C19), dextromethorphan O-demethylation (CYP2D6), and terfenedine hydroxylation (CYP3A4) as typical substrate metabolism reactions of human main five CYP enzyme forms (CYP1A2, 2C9, 2C19, 2D6, 3A4), an inhibitory degree of each metabolite production amount by a compound of the present invention was assessed. […] After the centrifugation at 3000 rpm for 15 minutes, resorufin (CYP1A2 metabolite) in the supernatant was quantified by a multi-label counter and hydroxytolbutamide (CYP2C9 metabolite), 4′-hydroxymephenyloin (CYP2C19 metabolite), dextrorphan (CYP2D6 metabolite), and terfenadine alcohol metabolite (CYP3A4 metabolite) were quantified by LC/MS/MS. Addition of only DMSO being a solvent dissolving a compound to a reaction system was adopted as a control (100%), remaining activity (%) was calculated and IC50 was calculated by reverse presumption by a logistic model using a concentration and an inhibition rate.

[3] = biological target: T2, CYP2C19 (Homo sapiens, UniProt P33261); assay: CYP inhibition test (CYP2C19); format: in vitro ADME; conditions: pooled human hepatic microsome 0.2 mg protein/mL, 15 minutes, 37° C.; read-out: IC50 CYP2C19 (mephenyloin 4′-hydroxylation)
T2 construct: enzyme, pooled human hepatic microsome 0.2 mg protein/mL; from tissue
T2 sequence (P33261 whole entry): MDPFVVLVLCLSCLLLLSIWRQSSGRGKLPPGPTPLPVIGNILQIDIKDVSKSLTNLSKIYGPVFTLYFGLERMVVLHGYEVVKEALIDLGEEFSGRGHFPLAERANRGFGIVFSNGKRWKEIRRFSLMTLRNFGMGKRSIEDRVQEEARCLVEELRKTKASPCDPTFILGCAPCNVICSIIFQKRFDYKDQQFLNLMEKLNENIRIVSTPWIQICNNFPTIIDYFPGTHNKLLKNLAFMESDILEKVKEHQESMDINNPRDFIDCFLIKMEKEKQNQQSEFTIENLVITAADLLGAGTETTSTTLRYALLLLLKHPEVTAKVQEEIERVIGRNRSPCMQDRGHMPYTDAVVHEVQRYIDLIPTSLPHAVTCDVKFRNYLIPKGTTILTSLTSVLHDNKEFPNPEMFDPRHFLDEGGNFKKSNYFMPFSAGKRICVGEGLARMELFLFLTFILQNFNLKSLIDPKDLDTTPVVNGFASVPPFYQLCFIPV
From the text: as §1

[4] = biological target: T3, CYP2D6 (Homo sapiens, UniProt P10635); assay: CYP inhibition test (CYP2D6); format: in vitro ADME; conditions: pooled human hepatic microsome 0.2 mg protein/mL, 15 minutes, 37° C.; read-out: IC50 CYP2D6 (dextromethorphan O-demethylation)
T3 construct: enzyme, pooled human hepatic microsome 0.2 mg protein/mL; from tissue
T3 sequence (P10635 whole entry): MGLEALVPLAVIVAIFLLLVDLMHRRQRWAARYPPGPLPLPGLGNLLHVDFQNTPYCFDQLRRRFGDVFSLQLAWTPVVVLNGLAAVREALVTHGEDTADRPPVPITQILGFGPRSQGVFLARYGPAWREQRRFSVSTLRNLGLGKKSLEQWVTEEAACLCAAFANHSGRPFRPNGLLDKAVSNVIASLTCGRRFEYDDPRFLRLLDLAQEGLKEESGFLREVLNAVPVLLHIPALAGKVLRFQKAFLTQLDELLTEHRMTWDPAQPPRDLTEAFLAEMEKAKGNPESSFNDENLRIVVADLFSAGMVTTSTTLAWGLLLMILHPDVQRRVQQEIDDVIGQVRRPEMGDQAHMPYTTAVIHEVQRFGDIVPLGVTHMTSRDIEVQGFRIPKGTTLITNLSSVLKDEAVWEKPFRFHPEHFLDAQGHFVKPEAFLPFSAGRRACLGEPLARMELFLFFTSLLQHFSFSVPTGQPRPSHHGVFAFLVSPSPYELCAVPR
From the text: as §1

[5] = biological target: T4, human ether-a-go-go related gene (hERG) channel (Homo sapiens, UniProt Q12809); assay: hERG test; format: cell-based; conditions: HEK293 cells expressing hERG channel, whole cell patch clamp, 10 minutes, concentration not given
T4 construct: expressed in transfected cells; host or cells: HEK293
T4 sequence (Q12809 whole entry): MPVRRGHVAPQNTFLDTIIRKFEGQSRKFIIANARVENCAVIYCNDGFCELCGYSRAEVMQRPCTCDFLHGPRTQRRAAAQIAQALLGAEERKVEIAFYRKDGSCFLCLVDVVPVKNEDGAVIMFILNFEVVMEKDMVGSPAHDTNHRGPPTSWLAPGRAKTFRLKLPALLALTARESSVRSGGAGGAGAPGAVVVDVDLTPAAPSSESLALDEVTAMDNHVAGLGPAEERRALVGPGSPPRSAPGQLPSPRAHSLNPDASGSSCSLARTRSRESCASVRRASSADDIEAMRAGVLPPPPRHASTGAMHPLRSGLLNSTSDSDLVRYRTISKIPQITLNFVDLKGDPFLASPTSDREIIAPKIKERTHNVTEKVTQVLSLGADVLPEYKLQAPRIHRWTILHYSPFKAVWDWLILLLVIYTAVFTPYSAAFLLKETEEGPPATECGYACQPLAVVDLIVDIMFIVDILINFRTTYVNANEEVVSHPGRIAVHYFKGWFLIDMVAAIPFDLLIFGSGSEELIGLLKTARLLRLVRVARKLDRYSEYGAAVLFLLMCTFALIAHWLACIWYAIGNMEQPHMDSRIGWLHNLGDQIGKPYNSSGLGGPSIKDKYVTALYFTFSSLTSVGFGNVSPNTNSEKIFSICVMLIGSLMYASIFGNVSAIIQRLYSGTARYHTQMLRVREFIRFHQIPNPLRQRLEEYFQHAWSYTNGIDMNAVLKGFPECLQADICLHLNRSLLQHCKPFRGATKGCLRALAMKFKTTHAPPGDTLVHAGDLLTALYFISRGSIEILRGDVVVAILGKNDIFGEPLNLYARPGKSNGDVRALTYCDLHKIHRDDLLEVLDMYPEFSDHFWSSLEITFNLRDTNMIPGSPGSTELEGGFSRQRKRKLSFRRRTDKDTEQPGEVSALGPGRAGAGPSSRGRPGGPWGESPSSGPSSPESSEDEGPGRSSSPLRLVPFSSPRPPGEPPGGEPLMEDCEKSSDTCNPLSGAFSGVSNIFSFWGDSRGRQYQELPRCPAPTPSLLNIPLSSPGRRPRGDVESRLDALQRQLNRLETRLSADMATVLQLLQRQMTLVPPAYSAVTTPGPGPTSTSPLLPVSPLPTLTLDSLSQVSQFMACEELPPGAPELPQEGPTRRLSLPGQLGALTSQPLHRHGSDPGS
From the text: For the purpose of assessing risk of an electrocardiogram QT interval prolongation, effects on delayed rectifier K+ current (IKr), which plays an important role in the ventricular repolarization process, of the compound of the present invention was studied using HEK293 cells expressing human ether-a-go-go related gene (hERG) channel.
A cell was retained at a membrane potential of −80 mV by whole cell patch clamp method using an automated patch clamp system (PatchXpress 7000A, Axon Instruments Inc.) and leakage potential at −50 mV was generated. IKr induced by depolarization pulse stimulation at +40 mV for 2 seconds and, further, repolarization pulse stimulation at −50 mV for 2 seconds was recorded. […] From the recording IKr, an absolute value of the tail peak current was measured based on the current value at the resting membrane potential using an analysis software (DataXpress ver.1, Molecular Devices Corporation). Further, the % inhibition relative to the tail peak current before application of the compound of the present invention was calculated, and compared with the vehicle-applied group (0.1% dimethyl sulfoxide solution) to assess influence of the compound of the present invention on IKr.

IC50 [1]: ≤ 1 µM
IC50 [2]: > 20 µM
IC50 [3]: > 20 µM
IC50 [4]: > 20 µM
Structure (SMILES): C[C@@]1(c2cc(-c3cccnc3F)ccc2F)Cc2nccn2C(N)=N1 [Compound I-2]
% inhibition of IKr tail peak current [5]: 12.3%

Source: patent US9018219B2, “Fused aminodihydropyrimidine derivative” (Shionogi & Co., Ltd., priority 2010, dated 2015)
